Measured values published in US10765114B2, “4-amino-6-(pyridyl and 2-substitutedphenyl)-picolinates and 6-amino-2-(pyridyl and 2-substitutedphenyl)-pyrimidine-4-carboxylates and their use as herbicides” (Dow AgroSciences LLC, priority 2013, dated 2020).

system: not given; experiment: not given; conditions: not given

melting point [°C]	SMILES
140 to 143	COc1c(N)nc(-c2ccc(Cl)c(F)c2C)nc1C(=O)O [Compound 64]

system: Key Grass and Sedge Weeds as well as Grass Crops; experiment: Post-Emergent Test II (Table 6); type: in vivo; conditions: post-emergence, 336 h, CYPSS, 70 g ai/ha, 14 days after application, read-out: Visual Growth Reduction (%) 14 Days After Application CYPSS
Procedure, shortened: (§1)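 Visual injury ratings (0 = no injury, 100 = complete kill) were taken 14 days after treatment relative to untreated plants. Seedlings at the first or second true leaf stage received an overhead spray at 187 L/ha, and solvent-blank sprayed plants served as controls.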

SMILES	pest or weed control at 70 g/ha [%]
COc1c(N)nc(-c2ccc(Cl)c(F)c2C)nc1C(=O)O [Compound 64]	0 to 29

same assay, conditions: post-emergence, 336 h, CYPSS, 140 g ai/ha, 14 days after application, read-out: Visual Growth Reduction (%) 14 Days After Application CYPSS

SMILES	pest or weed control at 140 g/ha [%]
COc1c(N)nc(-c2ccc(Cl)c(F)c2C)nc1C(=O)O [Compound 64]	0 to 29

same assay, conditions: post-emergence, 336 h, DIGSA: crabgrass (Digitaria sanguinalis), 70 g ai/ha, 14 days after application, read-out: Visual Growth Reduction (%) 14 Days After Application DIGSA

SMILES	pest or weed control at 70 g/ha [%]
COc1c(N)nc(-c2ccc(Cl)c(F)c2C)nc1C(=O)O [Compound 64]	0 to 29

same assay, conditions: post-emergence, 336 h, DIGSA: crabgrass (Digitaria sanguinalis), 140 g ai/ha, 14 days after application, read-out: Visual Growth Reduction (%) 14 Days After Application DIGSA

SMILES	pest or weed control at 140 g/ha [%]
COc1c(N)nc(-c2ccc(Cl)c(F)c2C)nc1C(=O)O [Compound 64]	0 to 29

same assay, conditions: post-emergence, 336 h, ECHSS, 70 g ai/ha, 14 days after application, read-out: Visual Growth Reduction (%) 14 Days After Application ECHSS

SMILES	pest or weed control at 70 g/ha [%]
COc1c(N)nc(-c2ccc(Cl)c(F)c2C)nc1C(=O)O [Compound 64]	0 to 29

same assay, conditions: post-emergence, 336 h, ECHSS, 140 g ai/ha, 14 days after application, read-out: Visual Growth Reduction (%) 14 Days After Application ECHSS

SMILES	pest or weed control at 140 g/ha [%]
COc1c(N)nc(-c2ccc(Cl)c(F)c2C)nc1C(=O)O [Compound 64]	0 to 29

same assay, conditions: post-emergence, 336 h, ORYSS (crop), 70 g ai/ha, 14 days after application, read-out: Visual Growth Reduction (%) 14 Days After Application ORYSS

SMILES	pest or weed control at 70 g/ha [%]
COc1c(N)nc(-c2ccc(Cl)c(F)c2C)nc1C(=O)O [Compound 64]	0 to 29

same assay, conditions: post-emergence, 336 h, ORYSS (crop), 140 g ai/ha, 14 days after application, read-out: Visual Growth Reduction (%) 14 Days After Application ORYSS

SMILES	pest or weed control at 140 g/ha [%]
COc1c(N)nc(-c2ccc(Cl)c(F)c2C)nc1C(=O)O [Compound 64]	0 to 29

same assay, conditions: post-emergence, 336 h, SETFA: giant foxtail (Setaria faberi), 70 g ai/ha, 14 days after application, read-out: Visual Growth Reduction (%) 14 Days After Application SETFA

SMILES	pest or weed control at 70 g/ha [%]
COc1c(N)nc(-c2ccc(Cl)c(F)c2C)nc1C(=O)O [Compound 64]	0 to 29

same assay, conditions: post-emergence, 336 h, SETFA: giant foxtail (Setaria faberi), 140 g ai/ha, 14 days after application, read-out: Visual Growth Reduction (%) 14 Days After Application SETFA

SMILES	pest or weed control at 140 g/ha [%]
COc1c(N)nc(-c2ccc(Cl)c(F)c2C)nc1C(=O)O [Compound 64]	0 to 29

same assay, conditions: post-emergence, 336 h, SORVU: grain sorghum (Sorghum vulgare), 70 g ai/ha, 14 days after application, read-out: Visual Growth Reduction (%) 14 Days After Application SORVU

SMILES	pest or weed control at 70 g/ha [%]
COc1c(N)nc(-c2ccc(Cl)c(F)c2C)nc1C(=O)O [Compound 64]	0 to 29

same assay, conditions: post-emergence, 336 h, SORVU: grain sorghum (Sorghum vulgare), 140 g ai/ha, 14 days after application, read-out: Visual Growth Reduction (%) 14 Days After Application SORVU

SMILES	pest or weed control at 140 g/ha [%]
COc1c(N)nc(-c2ccc(Cl)c(F)c2C)nc1C(=O)O [Compound 64]	0 to 29

same assay, conditions: post-emergence, 336 h, TRZSS (crop), 70 g ai/ha, 14 days after application, read-out: Visual Growth Reduction (%) 14 Days After Application TRZSS

SMILES	pest or weed control at 70 g/ha [%]
COc1c(N)nc(-c2ccc(Cl)c(F)c2C)nc1C(=O)O [Compound 64]	0 to 29

same assay, conditions: post-emergence, 336 h, TRZSS (crop), 140 g ai/ha, 14 days after application, read-out: Visual Growth Reduction (%) 14 Days After Application TRZSS

SMILES	pest or weed control at 140 g/ha [%]
COc1c(N)nc(-c2ccc(Cl)c(F)c2C)nc1C(=O)O [Compound 64]	0 to 29

same assay, conditions: post-emergence, 336 h, ZEAMX: maize, corn (Zea mays), 70 g ai/ha, 14 days after application, read-out: Visual Growth Reduction (%) 14 Days After Application ZEAMX

SMILES	pest or weed control at 70 g/ha [%]
COc1c(N)nc(-c2ccc(Cl)c(F)c2C)nc1C(=O)O [Compound 64]	0 to 29

same assay, conditions: post-emergence, 336 h, ZEAMX: maize, corn (Zea mays), 140 g ai/ha, 14 days after application, read-out: Visual Growth Reduction (%) 14 Days After Application ZEAMX

SMILES	pest or weed control at 140 g/ha [%]
COc1c(N)nc(-c2ccc(Cl)c(F)c2C)nc1C(=O)O [Compound 64]	0 to 29

system: Key Broadleaf Weed and Crop Species; experiment: Post-Emergent Test II (Table 5); type: in vivo; conditions: Abutilon theophrasti, post-emergence, 336 h, ABUTH: velvetleaf (Abutilon theophrasti), application rate 70 (kg ai/ha; footnote: g ai/ha), read-out: Visual Growth Reduction (%) 14 Days After Application ABUTH
Procedure, shortened: as §1

SMILES	pest or weed control at 70 g/ha [%]
COc1c(N)nc(-c2ccc(Cl)c(F)c2C)nc1C(=O)O [Compound 64]	0 to 29

same assay, conditions: Abutilon theophrasti, post-emergence, 336 h, ABUTH: velvetleaf (Abutilon theophrasti), application rate 140 (kg ai/ha; footnote: g ai/ha), read-out: Visual Growth Reduction (%) 14 Days After Application ABUTH

SMILES	pest or weed control at 140 g/ha [%]
COc1c(N)nc(-c2ccc(Cl)c(F)c2C)nc1C(=O)O [Compound 64]	0 to 29

same assay, conditions: Amaranthus retroflexus, post-emergence, 336 h, AMARE: redroot pigweed (Amaranthus retroflexus), application rate 70 (kg ai/ha; footnote: g ai/ha), read-out: Visual Growth Reduction (%) 14 Days After Application AMARE

SMILES	pest or weed control at 70 g/ha [%]
COc1c(N)nc(-c2ccc(Cl)c(F)c2C)nc1C(=O)O [Compound 64]	60 to 74

same assay, conditions: Amaranthus retroflexus, post-emergence, 336 h, AMARE: redroot pigweed (Amaranthus retroflexus), application rate 140 (kg ai/ha; footnote: g ai/ha), read-out: Visual Growth Reduction (%) 14 Days After Application AMARE

SMILES	pest or weed control at 140 g/ha [%]
COc1c(N)nc(-c2ccc(Cl)c(F)c2C)nc1C(=O)O [Compound 64]	75 to 84

same assay, conditions: Brassica napus, post-emergence, 336 h, BRSSS: oilseed rape, canola (Brassica napus), application rate 70 (kg ai/ha; footnote: g ai/ha), read-out: Visual Growth Reduction (%) 14 Days After Application BRSSS

SMILES	pest or weed control at 70 g/ha [%]
COc1c(N)nc(-c2ccc(Cl)c(F)c2C)nc1C(=O)O [Compound 64]	0 to 29

same assay, conditions: Brassica napus, post-emergence, 336 h, BRSSS: oilseed rape, canola (Brassica napus), application rate 140 (kg ai/ha; footnote: g ai/ha), read-out: Visual Growth Reduction (%) 14 Days After Application BRSSS

SMILES	pest or weed control at 140 g/ha [%]
COc1c(N)nc(-c2ccc(Cl)c(F)c2C)nc1C(=O)O [Compound 64]	0 to 29

same assay, conditions: Chenopodium album, post-emergence, 336 h, CHEAL: lambsquarters (Chenopodium album), application rate 70 (kg ai/ha; footnote: g ai/ha), read-out: Visual Growth Reduction (%) 14 Days After Application CHEAL

SMILES	pest or weed control at 70 g/ha [%]
COc1c(N)nc(-c2ccc(Cl)c(F)c2C)nc1C(=O)O [Compound 64]	95 to 100

same assay, conditions: Chenopodium album, post-emergence, 336 h, CHEAL: lambsquarters (Chenopodium album), application rate 140 (kg ai/ha; footnote: g ai/ha), read-out: Visual Growth Reduction (%) 14 Days After Application CHEAL

SMILES	pest or weed control at 140 g/ha [%]
COc1c(N)nc(-c2ccc(Cl)c(F)c2C)nc1C(=O)O [Compound 64]	95 to 100

same assay, conditions: Euphorbia heterophylla, post-emergence, 336 h, EPHHL: wild poinsettia (Euphorbia heterophylla), application rate 70 (kg ai/ha; footnote: g ai/ha), read-out: Visual Growth Reduction (%) 14 Days After Application EPHHL

SMILES	pest or weed control at 70 g/ha [%]
COc1c(N)nc(-c2ccc(Cl)c(F)c2C)nc1C(=O)O [Compound 64]	0 to 29

same assay, conditions: Euphorbia heterophylla, post-emergence, 336 h, EPHHL: wild poinsettia (Euphorbia heterophylla), application rate 140 (kg ai/ha; footnote: g ai/ha), read-out: Visual Growth Reduction (%) 14 Days After Application EPHHL

SMILES	pest or weed control at 140 g/ha [%]
COc1c(N)nc(-c2ccc(Cl)c(F)c2C)nc1C(=O)O [Compound 64]	0 to 29

same assay, conditions: Helianthus annuus, post-emergence, 336 h, HELAN: sunflower (Helianthus annuus), application rate 70 (kg ai/ha; footnote: g ai/ha), read-out: Visual Growth Reduction (%) 14 Days After Application HELAN

SMILES	pest or weed control at 70 g/ha [%]
COc1c(N)nc(-c2ccc(Cl)c(F)c2C)nc1C(=O)O [Compound 64]	45 to 59

same assay, conditions: Helianthus annuus, post-emergence, 336 h, HELAN: sunflower (Helianthus annuus), application rate 140 (kg ai/ha; footnote: g ai/ha), read-out: Visual Growth Reduction (%) 14 Days After Application HELAN

SMILES	pest or weed control at 140 g/ha [%]
COc1c(N)nc(-c2ccc(Cl)c(F)c2C)nc1C(=O)O [Compound 64]	85 to 94

same assay, conditions: Viola tricolor, post-emergence, 336 h, VIOTR: wild pansy (Viola tricolor), application rate 70 (kg ai/ha; footnote: g ai/ha), read-out: Visual Growth Reduction (%) 14 Days After Application VIOTR

SMILES	pest or weed control at 70 g/ha [%]
COc1c(N)nc(-c2ccc(Cl)c(F)c2C)nc1C(=O)O [Compound 64]	0 to 29

same assay, conditions: Viola tricolor, post-emergence, 336 h, VIOTR: wild pansy (Viola tricolor), application rate 140 (kg ai/ha; footnote: g ai/ha), read-out: Visual Growth Reduction (%) 14 Days After Application VIOTR

SMILES	pest or weed control at 140 g/ha [%]
COc1c(N)nc(-c2ccc(Cl)c(F)c2C)nc1C(=O)O [Compound 64]	0 to 29
